The results in this text go back to patent US10328060B2, “Certain protein kinase inhibitors” (Shanghai Fochon Pharmaceutical Co., Ltd., priority 2014, dated 2019).

As a reminder, the IC50 is the point on the concentration scale where inhibition reaches its midpoint.

The subject of assay [1] is SU-DHL-6 cell. The experiment in a line: SU-DHL-6 cell proliferation assay (MTS). The conditions noted are these: SU-DHL-6 cells, 48 h. The class given is cell-based. The procedure:
To investigate whether a compound is able to inhibit the activity of PI3K in cells, a mechanism-based assay using SU-DHL-6 cell (ATCC number: CRL 2959) was developed. In this assay, inhibition of PI3K-6 was detected by the inhibition of SUDHL-6 cells proliferation. SU-DHL-6 cells were cultured in culture flasks to 40-80% confluence in RPMI-1640 plus 10% fetal bovine serum. Cells were collected and plated onto 96-well-plates at 30000/well. Plates were incubated overnight at 37° C., with 5% CO2 to adhere. Compounds were added to the plates. Final compound concentrations were […], 123.5, 41.2, 13.7, 4.6 and 1.5 nM. Place plates at 37° C., with 5% CO2 for 48 h. After removing the medium, 20 μl MTS/100 μl medium mixture solution were added to each well and incubate the plates for exactly 2 hours. Stop the reaction by adding 25 μl 10% SDS per well. Measure absorbance at 490 nm and 650 nm (reference wavelength). IC50 was calculated using GraphPad Prism 5.0.

The subject of assay [2] is WSU-NHL. The experiment in a line: WSU-NHL cell viability assay (CellTiter-Glo). It is filed as cell-based. The conditions noted are these: WSU-NHL cells, 48 h. The protocol:
The cancer cell line WSU-NHL (DSMZ number: ACC 58) was maintained in RPMI-1640 medium with 10% FBS, at 37° C. in an atmosphere of 5% CO2. The tumor cells were routinely sub-cultured twice weekly by trypsin-EDTA treatment. The cells growing in an exponential growth phase were harvested, counted, and planted in 96-well plated by 5000 cells/well. After 24 hours' culture, the series diluted test articles were added into wells, then return the assay plate into the incubator and continue culture for 48 h. At the ending point of incubation, the assay plates were detected by Promega CellTiter-Glo Luminescent Cell Viability Assay Kit (Promege 7572), and the luminescence record of each well was read by the 2104 EnVision plate reader. The data were interpreted by GraphPad Prism5 software.
A general note: ATP-based viability assays read luminescence as a measure of living cells.

`Cc1csc2cc(C(C)Nc3ncnc4[nH]cnc34)c(-c3ccccc3)c(=O)n12` (centres unmarked) [Example 1, 7-(1-(9H-purin-6-ylamino)ethyl)-3-methyl-6-phenyl-5H-thiazolo[3,2-a]pyridin-5-one]: half-maximal inhibition in assay [1] (Homo sapiens) (IC50) was put at 36 nM. On the same count and under the same terms, for `CCC(Nc1ncnc2[nH]cnc12)c1cc2scc(C)n2c(=O)c1-c1ccccc1` (centres unmarked) [Example 2, 7-(1-(9H-purin-6-ylamino)propyl)-3-methyl-6-phenyl-5H-thiazolo[3,2-a]pyridin-5-one] the value was 60 nM; for `CC(Nc1ncnc2[nH]cnc12)c1cc2ccccn2c(=O)c1-c1ccccc1` (centres unmarked) [Example 3, 2-(1-(9H-purin-6-ylamino)ethyl)-3-phenyl-4H-quinolizin-4-one], 713 nM; for `Cc1csc2cc(C(C)Nc3ncnc4[nH]cnc34)c(-c3ccc(F)cc3)c(=O)n12` (centres unmarked) [Example 5, 7-(1-((9H-purin-6-yl)amino)ethyl)-6-(4-fluorophenyl)-3-methyl-5H-thiazolo[3,2-a]pyridin-5-one], 72 nM. For the molecule `CCC(Nc1ncnc2[nH]cnc12)c1cc2scc(C)n2c(=O)c1-c1ccc(F)cc1` (centres unmarked) [Example 6, 7-(1-((9H-purin-6-yl)amino)propyl)-6-(4-fluorophenyl)-3-methyl-5H-thiazolo[3,2-a]pyridin-5-one], half-maximal inhibition in assay [1] (Homo sapiens) (IC50) was put at 60 nM.

`Cc1csc2cc(C(C)Nc3ncnc4[nH]cnc34)c(-c3ccccc3F)c(=O)n12` (centres unmarked) [Example 7, 7-(1-((9H-purin-6-yl)amino)ethyl)-6-(2-fluorophenyl)-3-methyl-5H-thiazolo[3,2-a]pyridin-5-one] registered an IC50 in assay [1] (Homo sapiens) of 13 nM.

In the case of `Cc1csc2cc(C(C)Nc3ncnc4[nH]cnc34)c(-c3cccc(F)c3)c(=O)n12` (centres unmarked) [Example 8, 7-(1-((9H-purin-6-yl)amino)ethyl)-6-(3-fluorophenyl)-3-methyl-5H-thiazolo[3,2-a]pyridin-5-one], the IC50 in assay [1] (Homo sapiens) amounted to 7.2 nM. Still for that read-out and setting: then `CCc1csc2cc(C(C)Nc3ncnc4[nH]cnc34)c(-c3ccccc3)c(=O)n12` (centres unmarked) [Example 9, 7-(1((9H-purin-6-yl)amino)ethyl)-3-ethyl-6-phenyl-5H-thiazolo[3,2-a]-pyridin-5-one], with 103 nM; and `CCC(Nc1ncnc2[nH]cnc12)c1cc2scc(C)n2c(=O)c1-c1ccccc1F` (stereo not drawn) [Example 10, 7-(l-((9H-purin-6-yl)amino)propyl)-6-(2-fluorophenyl)-3-methyl-5H-thiazolo[3,2-a]pyridin-5-one], with 28 nM. Turning to `CCC(Nc1ncnc2[nH]cnc12)c1cc2scc(C)n2c(=O)c1-c1cccc(F)c1` (centres unmarked) [Example 11, 7-(1((9H-purin-6-yl)amino)propyl)-6-(3-fluorophenyl)-3-methyl-5H-thiazolo[3,2-a]pyridin-5-one], inhibition in assay [1] (Homo sapiens) was half-maximal at 12 nM (IC50). Take `CC(Nc1ncnc2[nH]cnc12)c1cc2scc(Cl)n2c(=O)c1-c1cccc(F)c1` (centres unmarked) [Example 12, 7-(1-((9H-purin-6-yl)amino)ethyl)-3-chloro-6-(3-fluorophenyl)-5H-thiazolo[3,2-a]pyridin-5-one]: the IC50 in assay [1] (Homo sapiens) came out at 2.7 nM; in assay [2] (Homo sapiens) it was 24 nM. For `CCC(Nc1ncnc2[nH]cnc12)c1cc2scc(Cl)n2c(=O)c1-c1cccc(F)c1` (centres unmarked) [Example 13, 7-(1-((9H-purin-6-yl)amino)propyl)-3-chloro-6-(3-fluorophenyl)-5H-thiazolo[3,2-a]pyridin-5-one], the values for the IC50 in assay [1] (Homo sapiens) and in assay [2] (Homo sapiens) were 7.5 nM and 36 nM, respectively.

Turning to `CC(Nc1ncnc2[nH]cnc12)c1cc2scc(Cl)n2c(=O)c1-c1ccccc1` (centres unmarked) [Example 14, 7-(1-((9H-purin-6-yl)amino)ethyl)-3-chloro-6-phenyl-5H-thiazolo[3,2-a]-pyridin-5-one], the IC50 in assay [1] (Homo sapiens) worked out at 8.5 nM; in assay [2] (Homo sapiens), 49 nM. On to `CCC(Nc1ncnc2[nH]cnc12)c1cc2scc(Cl)n2c(=O)c1-c1ccccc1` (centres unmarked) [Example 15, 7-(1-((9H-purin-6-yl)amino)propyl)-3-chloro-6-phenyl-5H-thiazolol[3,2-a]-pyridin-5-one], for which, in assay [1] (Homo sapiens), the IC50 was found to be 44.8 nM. For `CC(Nc1ncnc2[nH]cnc12)c1cc2scc(C(F)(F)F)n2c(=O)c1-c1cccc(F)c1` (centres unmarked) [Example 16, 7-(1-((9H-purin-6-yl)amino)ethyl)-6-(3-fluorophenyl)-3-(trifluoromethyl)-5H-thiazolo[3,2-a]pyridin-5-one], the IC50 is 4.4 nM in assay [1] (Homo sapiens) and 87 nM in assay [2] (Homo sapiens). Turning to `CCC(Nc1ncnc2[nH]cnc12)c1cc2scc(C(F)(F)F)n2c(=O)c1-c1cccc(F)c1` (centres unmarked) [Example 17, 7-(1-((9H-purin-6-yl)amino)propyl)-6-(3-fluorophenyl)-3-(trifluoromethyl)-5H-thiazolo[3,2-a]pyridin-5-one], in assay [1] (Homo sapiens), the IC50 amounted to 85 nM. Take `CC(Nc1ncnc2[nH]cnc12)c1cc2scc(C(F)(F)F)n2c(=O)c1-c1ccccc1` (centres unmarked) [Example 18, 7-(1-((9H-purin-6-yl)amino)ethyl)-6-phenyl-3-(trifluoromethyl)-5H-thiazol-[3,2-a]pyridin-5-one]: the IC50 came out at 23 nM in assay [1] and 95 nM in assay [2]. Turning to `CCC(Nc1ncnc2[nH]cnc12)c1cc2scc(C(F)(F)F)n2c(=O)c1-c1ccccc1` (centres unmarked) [Example 19], the half-maximal inhibitory concentration (IC50) in assay [1] (Homo sapiens) amounted to 17 nM. With `O=c1c(-c2cccc(F)c2)c(C(Nc2ncnc3[nH]cnc23)C2CC2)cc2scc(Cl)n12` (centres unmarked) [Example 20, 7-(((9H-purin-6-yl)amino)(cyclopropyl)methyl)-3-chloro-6-(3-fluorophenyl)-5H-thiazolo[3,2-a]pyridin-5-one], the values for the IC50 in assay [1] (Homo sapiens) and in assay [2] (Homo sapiens) were 7.8 nM and 39 nM, respectively. For `O=c1c(-c2ccccc2)c(C(Nc2ncnc3[nH]cnc23)C2CC2)cc2scc(Cl)n12` (centres unmarked) [Example 21, 7-(((9H-purin-6-yl)amino)(cyclopropyl)-methyl)-3-chloro-6-phenyl-5H-thiazolo-[3,2-a]pyridin-5-one] the same measures were 27 nM and 20 nM.

With `O=c1c(-c2cccc(F)c2)c(C(Nc2ncnc3[nH]cnc23)C2CC2)cc2scc(C(F)(F)F)n12` (centres unmarked) [Example 22, 7-(((9H-purin-6-yl)amino)(cyclopropyl)-methyl)-6-(3-fluorophenyl)-3-(trifluoromethyl)-5H-thiazolo[3,2-a]-pyridin-5-one], the IC50 in assay [1] (Homo sapiens) came to 186 nM.

For the molecule `O=c1c(-c2ccccc2)c(C(Nc2ncnc3[nH]cnc23)C2CC2)cc2scc(C(F)(F)F)n12` (centres unmarked) [Example 23, 7-(((9H-purin-6-yl)amino)(cyclopropyl)-methyl)-6-phenyl-3-(trifluoromethyl)-5H-thiazolo[3,2-a]pyridin-5-one], inhibition in assay [1] (Homo sapiens) was half-maximal at 27 nM (IC50).

`Cc1csc2cc(C(Nc3ncnc4[nH]cnc34)C3CC3)c(-c3ccccc3)c(=O)n12` (centres unmarked) [Example 24, 7-(((9H-purin-6-yl)amino)(cyclopropyl)methyl)-3-methyl-6-phenyl-5H-thiazolo[3,2-a]pyridin-5-one]: the IC50 worked out at 5.7 nM in assay [1] (Homo sapiens) and 16 nM in assay [2] (Homo sapiens). In the case of `Cc1csc2cc(C(Nc3ncnc4[nH]cnc34)C3CC3)c(-c3cccc(F)c3)c(=O)n12` (centres unmarked) [Example 25, 7-(((9H-purin-6-yl)amino)(cyclopropyl)methyl)-6-(3-fluorophenyl)-3-methyl-5H-thiazolo[3,2-a]pyridin-5-one], the figures for the IC50 in assay [1] (Homo sapiens) and in assay [2] (Homo sapiens) were 3.6 nM and 47 nM, respectively. In turn, `Cc1nc(N)nc(NC(C)c2cc3scc(C)n3c(=O)c2-c2ccccc2)c1C#N` (centres unmarked) [Example 26, 2-amino-4-methyl-6-((1-(3-methyl-5-oxo-6-phenyl-5H-thiazolo[3,2-a]pyridin-7-yl)ethyl)amino)pyrimidine-5-carbonitrile] returned an IC50 in assay [2] (Homo sapiens) of less than 9 nM. Still for that read-out and setting: then `Cc1nc(N)nc(NC(C)c2cc3scc(Cl)n3c(=O)c2-c2cccc(F)c2)c1C#N` (centres unmarked) [Example 27, 2-amino-4-((1-(3-chloro-6-(3-fluorophenyl)-5-oxo-5H-thiazolo[3,2-a]pyridin-7-yl)ethyl)amino)-6-methylpyrimidine-5-carbonitrile], with less than 9 nM.
